Experiments:
barnyardgrass [1] = assay: Test A postemergence; format: in vivo, Echinochloa crus-galli; conditions: Echinochloa crus-galli, post-emergence, 240 h, 0 to 100 scale where 0 is no effect and 100 is complete control
Outline: (§1)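 Greenhouse pot test, loam/sand soil. Formulation: non-phytotoxic solvent mix plus surfactant. Pre: directed spray onto soil after sowing. Post: plants at 1–2 leaf, 2–10 cm. Rated visually vs untreated controls at ~10 d, 0 (no effect) to 100 (complete control).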

kochia = assay: Test A postemergence; format: in vivo, Kochia scoparia; conditions: 0 to 100 scale where 0 is no effect and 100 is complete control
Outline: as §1

ragweed [2] = assay: Test A postemergence; format: in vivo, Ambrosia elatior; conditions: 0 to 100 scale where 0 is no effect and 100 is complete control
Outline: as §1

Italian ryegrass [3] = assay: Test A postemergence; format: in vivo, Lolium multiflorum; conditions: 0 to 100 scale where 0 is no effect and 100 is complete control
Outline: as §1

giant foxtail = assay: Test A postemergence; format: in vivo, Setaria faberii; conditions: Setaria faberi, post-emergence, 240 h, 0 to 100 scale where 0 is no effect and 100 is complete control
Outline: as §1

wheat = assay: Test A postemergence; format: in vivo, Triticum aestivum; conditions: Triticum aestivum, post-emergence, 240 h, 0 to 100 scale where 0 is no effect and 100 is complete control
Outline: as §1

blackgrass [4] = assay: Test C preemergence; format: in vivo, Alopecurus myosuroides; conditions: Alopecurus myosuroides, pre-emergence
Outline: (§2)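 Preemergence: seeds sown in a loam soil–sand blend and sprayed with test chemical in a non-phytotoxic solvent mixture containing surfactant. Postemergence: plants at 2 to 18 cm (1- to 4-leaf stage) in peat-based medium, treated with the same formulation. Greenhouse 13 to 15 days, then visual rating 0 (no effect) to 100 (complete control).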

Italian ryegrass [5] = assay: Test C preemergence; format: in vivo, Lolium multiflorum; conditions: Lolium multiflorum, pre-emergence, preemergence, read-out: Ryegrass, Italian plant response rating
Outline: as §2

johnsongrass = assay: Test C preemergence; format: in vivo, Sorghum halepense; conditions: Sorghum halepense, pre-emergence, preemergence, read-out: Johnsongrass plant response rating
Outline: as §2

morningglory = assay: Test C preemergence; format: in vivo, Ipomoea coccinea; conditions: Ipomoea, pre-emergence, preemergence, read-out: Morningglory plant response rating
Outline: as §2

yellow nutsedge = assay: Test C preemergence; format: in vivo, Cyperus esculentus; conditions: Cyperus, pre-emergence, preemergence, read-out: Nutsedge, Yellow plant response rating
Outline: as §2

ragweed [6] = assay: Test C preemergence; format: in vivo, Ambrosia elatior; conditions: Ambrosia artemisiifolia, pre-emergence, preemergence, read-out: Ragweed plant response rating
Outline: as §2

soybean = assay: Test C preemergence; format: in vivo, Glycine max; conditions: Glycine max, pre-emergence, preemergence, read-out: Soybean plant response rating
Outline: as §2

barnyardgrass [7] = assay: Test C preemergence; format: in vivo, Echinochloa crus-galli; conditions: Echinochloa crus-galli, pre-emergence
Outline: as §2

oilseed rape [8] = assay: Test C preemergence; format: in vivo, Brassica napus; conditions: Brassica napus, pre-emergence, preemergence, read-out: Oilseed Rape plant response rating
Outline: as §2

blackgrass [9] = assay: Test C postemergence; format: in vivo, Alopecurus myosuroides; conditions: Alopecurus myosuroides, post-emergence
Outline: as §2

large (Lg) crabgrass = assay: Test C postemergence; format: in vivo, Digitaria sanguinalis; conditions: Digitaria sanguinalis, post-emergence
Outline: as §2

oilseed rape [10] = assay: Test C postemergence; format: in vivo, Brassica napus
Outline: as §2

[11] = 16 g ai/ha, scale 0 to 100 (0 no effect, 100 complete control)
[12] = 62 g ai/ha, scale 0 (no effect) to 100 (complete control)
[13] = 125 g ai/ha, scale 0 (no effect) to 100 (complete control)

FC(F)c1cn(-c2ccccc2Oc2ncc(Cl)cn2)nn1 [Compound 147, 5-chloro-2-[2-[4-(difluoromethyl)-1H-1,2,3-triazol-1-yl]phenoxy]pyrimidine]
pest or weed control at 125 g/ha (barnyardgrass [1]; 125 g ai/ha, read-out: Barnyardgrass plant response rating): 90%
pest or weed control at 500 g/ha (barnyardgrass [1]; 500 g ai/ha, read-out: Plant response rating, Barnyardgrass): 90%
Kochia plant response rating (kochia; 125 g ai/ha): 100
Plant response rating, Kochia (kochia; 500 g ai/ha): 100
Ragweed plant response rating (ragweed [2]; 125 g ai/ha): 100
Plant response rating, Ragweed (ragweed [2]; 500 g ai/ha): 100
Ryegrass, Italian plant response rating (Italian ryegrass [3]; 125 g ai/ha): 70
Plant response rating, Ryegrass, Italian (Italian ryegrass [3]; 500 g ai/ha): 90
pest or weed control at 125 g/ha (giant foxtail; 125 g ai/ha, read-out: Foxtail, Giant plant response rating): 90%
pest or weed control at 500 g/ha (giant foxtail; 500 g ai/ha, read-out: Plant response rating, Foxtail, Giant): 90%
plant injury at 125 g/ha (wheat; 125 g ai/ha, read-out: Wheat plant response rating): 50%
plant injury at 500 g/ha (wheat; 500 g ai/ha, read-out: Plant response rating, Wheat): 80%
pest or weed control at 16 g/ha (blackgrass [4]; 16 g ai/ha, preemergence, scale 0 to 100 (0 no effect, 100 complete control), read-out: Blackgrass plant response rating): 0%
pest or weed control at 62 g/ha (blackgrass [4]; 62 g ai/ha, preemergence, scale 0 (no effect) to 100 (complete control), read-out: Blackgrass plant response rating): 50%
pest or weed control at 125 g/ha (blackgrass [4]; 125 g ai/ha, preemergence, scale 0 (no effect) to 100 (complete control), read-out: Blackgrass plant response rating): 90%
pest or weed control at 31 g/ha (blackgrass [4]; Preemergence, 31 g ai/ha, scale 0 to 100, 0 no effect, 100 complete control, read-out: Plant response rating, Blackgrass): 40%
pest or weed control at 16 g/ha (Italian ryegrass [5]; [11]): 0%
pest or weed control at 62 g/ha (Italian ryegrass [5]; [12]): 50%
pest or weed control at 125 g/ha (Italian ryegrass [5]; [13]): 70%
pest or weed control at 16 g/ha (johnsongrass; [11]): 10%
pest or weed control at 62 g/ha (johnsongrass; [12]): 80%
pest or weed control at 125 g/ha (johnsongrass; [13]): 90%
pest or weed control at 16 g/ha (morningglory; [11]): 40%
pest or weed control at 62 g/ha (morningglory; [12]): 95%
pest or weed control at 125 g/ha (morningglory; [13]): 100%
pest or weed control at 16 g/ha (yellow nutsedge; [11]): 0%
pest or weed control at 62 g/ha (yellow nutsedge; [12]): 15%
pest or weed control at 125 g/ha (yellow nutsedge; [13]): 55%
pest or weed control at 16 g/ha (ragweed [6]; [11]): 75%
pest or weed control at 62 g/ha (ragweed [6]; [12]): 98%
pest or weed control at 125 g/ha (ragweed [6]; [13]): 100%
plant injury at 16 g/ha (soybean; [11]): 85%
plant injury at 62 g/ha (soybean; [12]): 95%
plant injury at 125 g/ha (soybean; [13]): 95%
pest or weed control at 16 g/ha (barnyardgrass [7]; 16 g ai/ha, preemergence, scale 0 to 100 (0 no effect, 100 complete control), read-out: Barnyardgrass plant response rating): 10%
pest or weed control at 62 g/ha (barnyardgrass [7]; 62 g ai/ha, preemergence, scale 0 (no effect) to 100 (complete control), read-out: Barnyardgrass plant response rating): 90%
pest or weed control at 125 g/ha (barnyardgrass [7]; 125 g ai/ha, preemergence, scale 0 (no effect) to 100 (complete control), read-out: Barnyardgrass plant response rating): 100%
pest or weed control at 31 g/ha (barnyardgrass [7]; Preemergence, 31 g ai/ha, scale 0 to 100, 0 no effect, 100 complete control, read-out: Plant response rating, Barnyardgrass): 80%
plant injury at 16 g/ha (oilseed rape [8]; [11]): 100%
plant injury at 62 g/ha (oilseed rape [8]; [12]): 100%
plant injury at 125 g/ha (oilseed rape [8]; [13]): 100%
pest or weed control at 16 g/ha (blackgrass [9]; 16 g ai/ha, postemergence, 0 is no effect, 100 is complete control, read-out: Plant response rating (0 to 100), Blackgrass): 0%
pest or weed control at 31 g/ha (blackgrass [9]; 31 g ai/ha, postemergence, visual rating, scale 0 to 100 (0 no effect, 100 complete control), 13 to 15 days, read-out: Blackgrass plant response rating): 0%
pest or weed control at 125 g/ha (blackgrass [9]; 125 g ai/ha, postemergence, visual rating, scale 0 to 100 (0 no effect, 100 complete control), read-out: Plant response rating, Blackgrass): 10%
pest or weed control at 62 g/ha (blackgrass [9]; Postemergence, 62 g ai/ha, scale 0 to 100 (0 no effect, 100 complete control), read-out: Plant response rating, Blackgrass): 0%
pest or weed control at 16 g/ha (large (Lg) crabgrass; 16 g ai/ha, postemergence, 0 is no effect, 100 is complete control, read-out: Plant response rating (0 to 100), Crabgrass, Large): 5%
pest or weed control at 31 g/ha (large (Lg) crabgrass; 31 g ai/ha, postemergence, visual rating, scale 0 to 100 (0 no effect, 100 complete control), 13 to 15 days, read-out: Crabgrass, Large plant response rating): 5%
pest or weed control at 125 g/ha (large (Lg) crabgrass; 125 g ai/ha, postemergence, visual rating, scale 0 to 100 (0 no effect, 100 complete control), read-out: Plant response rating, Crabgrass, Large): 10%
pest or weed control at 62 g/ha (large (Lg) crabgrass; Postemergence, 62 g ai/ha, scale 0 to 100 (0 no effect, 100 complete control), read-out: Plant response rating, Crabgrass, Large): 10%
Oilseed Rape plant response rating (oilseed rape [10]; 31 g ai/ha, postemergence, visual rating, scale 0 to 100 (0 no effect, 100 complete control), 13 to 15 days): 40
plant injury at 16 g/ha (oilseed rape [10]; Brassica napus, post-emergence, 16 g ai/ha, postemergence, 0 is no effect, 100 is complete control, read-out: Plant response rating (0 to 100), Oilseed Rape): 25%
plant injury at 125 g/ha (oilseed rape [10]; Brassica napus, post-emergence, 125 g ai/ha, postemergence, visual rating, scale 0 to 100 (0 no effect, 100 complete control), read-out: Plant response rating, Oilseed Rape): 95%
plant injury at 62 g/ha (oilseed rape [10]; Brassica napus, post-emergence, Postemergence, 62 g ai/ha, scale 0 to 100 (0 no effect, 100 complete control), read-out: Plant response rating, Oilseed Rape): 75%

Reference: patent publication US9695155B2, “Herbicidal substituted pyrimidinyloxy benzene compounds” (E. I. DU PONT DE NEMOURS AND COMPANY, priority 2013, dated 2017)
